{
  "source": "patent US10669268B2",
  "about": "“Bicyclic derivatives” (Hoffmann-La Roche Inc., priority 2012, dated 2020)",
  "target": "ATX (human His-tagged) (Homo sapiens (Human), UniProt Q13822)",
  "assay": "Human ATX enzyme inhibition assay (fluorescence quenching, MR121 substrate)",
  "format": "biochemical",
  "details": "30 nM ATX, 1 μM MR121 substrate, 30° C., pH 8.0",
  "procedure": "Human ATX Enzyme Inhibition Assay\nAssay working solutions were made as follows:\nAssay buffer (50 mM Tris-HCl, 140 mM NaCl, 5 mM KCl, 1 mM CaCl2, 1 mM MgCl2, 0.01% Triton-X-100, pH 8.0;\nMR121 substrate solution: MR121 substrate stock solution (800 μM MR121 substrate in DMSO), diluted to 2-5× final concentration in assay buffer.\n10 μL of MR121 substrate solution was added (1 μM final concentration), mixed 30 times and then incubated for 15 minutes at 30° C.",
  "data": [
    {"smiles": "O=C(/C=C/c1cc(Cl)cc(Cl)c1)N1CC[C@@H]2CN(C(=O)c3ccc4[nH]nnc4c3)C[C@H]2C1", "note": "(relative stereo) [Example 13, (E)-1-[trans-2-(1H-Benzotriazole-5-carbonyl)-octahydro-pyrrolo[3,4-c]pyridin-5-yl]-3-(3,5-dichloro-phenyl)-prop-2-en-1-one]", "values": [
      {"measurement": "IC50", "value": 57, "unit": "nM"}
    ]},
    {"smiles": "O=C(OCc1ccc(OC(F)F)c(F)c1)N1C[C@@H]2CN(C(=O)c3ccc4[nH]nnc4c3)C[C@H]2C1", "note": "[Example 4.39, (3aS,6aS)-5-(1H-benzotriazole-5-carbonyl)-hexahydro-pyrrolo[3,4-c]pyrrole-2-carboxylic acid 4-difluoromethoxy-3-fluoro-benzyl ester]", "values": [
      {"measurement": "IC50", "value": 6, "unit": "nM"}
    ]},
    {"smiles": "O=C(/C=C/c1ccc(OC(F)(F)F)cc1)N1CC[C@@H]2CN(C(=O)N3CCc4ncccc4C3)C[C@@H]2CC1", "note": "[Example 8.06]", "values": [
      {"measurement": "IC50", "value": 192, "unit": "nM"}
    ]},
    {"smiles": "O=C(OCc1cc(Cl)cc(Cl)c1)N1CC[C@@H]2CN(C(=O)c3ccc4[nH]nnc4c3)C[C@H]2C1", "note": "(single isomer, unassigned) [Example 11A, trans-3,5-dichlorobenzyl 2-(1H-benzo[d][1,2,3]triazole-5-carbonyl)-hexahydro-1H-pyrrolo[3,4-c]pyridine-5(6H)-carboxylate]", "values": [
      {"measurement": "IC50", "value": 22, "unit": "nM"}
    ]},
    {"smiles": "O=C(OCc1cc(Cl)cc(Cl)c1)N1CC[C@H]2CN(C(=O)c3ccc4[nH]nnc4c3)C[C@H]2C1", "note": "(relative stereo) [Example 1.10, cis-3,5-dichlorobenzyl 2-(1H-benzo[d][1,2,3]triazole-5-carbonyl)hexahydro-1H-pyrrolo[3,4-c]pyridine-5(6H)-carboxylate]", "values": [
      {"measurement": "IC50", "value": 78, "unit": "nM"}
    ]},
    {"smiles": "O=C(/C=C/c1ccc(F)cc1F)N1CC[C@@H]2CN(C(=O)c3ccc4[nH]nnc4c3)C[C@@H]2CC1", "note": "[Example 15.29]", "values": [
      {"measurement": "IC50", "value": 34, "unit": "nM"}
    ]},
    {"smiles": "CS(=O)(=O)c1cc(COC(=O)N2CC[C@@H]3CN(C(=O)c4ccc5[nH]nnc5c4)C[C@@H]3CC2)cc(C(F)(F)F)c1", "note": "[Example 4.05, (3aS,8aR)-2-(1H-benzotriazole-5-carbonyl)-octahydro-pyrrolo[3,4-d]azepine-6-carboxylic acid 3-methanesulfonyl-5-trifluoromethyl-benzyl ester]", "values": [
      {"measurement": "IC50", "value": 11, "unit": "nM"}
    ]},
    {"smiles": "O=C(OCc1cc(Cl)cc(Cl)c1)N1C[C@@H]2CN(C(=O)c3ccc4[nH]nnc4c3)C[C@@H]2C1", "note": "[Example 1.03, (3aR,6aS)-3,5-dichlorobenzyl 5-(1H-benzo[d][1,2,3]triazole-5-carbonyl)hexahydropyrrolo[3,4-c]pyrrole-2(1H)-carboxylate]", "values": [
      {"measurement": "IC50", "value": 25, "unit": "nM"}
    ]},
    {"smiles": "CC(C)(C)c1cc(Br)ccc1OCC(=O)N1C[C@@H]2CN(C(=O)c3ccc4[nH]nnc4c3)C[C@H]2C1", "note": "[Example 19.30, 1-[(3aS,6aS)-5-(1H-benzotriazole-5-carbonyl)-1,3,3a,4,6,6a-hexahydropyrrolo[3,4-c]pyrrol-2-yl]-2-(4-bromo-2-tert-butylphenoxy)ethanone]", "values": [
      {"measurement": "IC50", "value": 5, "unit": "nM"}
    ]},
    {"smiles": "O=C(/C=C/c1ccc(Cl)cc1)N1C[C@H]2CCN(C(=O)c3ccc4[nH]nnc4c3)CC[C@H]2C1", "note": "[Example 15.19]", "values": [
      {"measurement": "IC50", "value": 9, "unit": "nM"}
    ]},
    {"smiles": "CS(=O)(=O)c1cc(Cl)cc(COC(=O)N2C[C@@H]3CN(C(=O)c4ccc5[nH]nnc5c4)C[C@@H]3C2)c1", "note": "[Example 4.04, (3aS,6aR)-5-(1H-benzotriazole-5-carbonyl)-hexahydro-pyrrolo[3,4-c]pyrrole-2-carboxylic acid 3-chloro-5-methanesulfonyl-benzyl ester]", "values": [
      {"measurement": "IC50", "value": 46, "unit": "nM"}
    ]},
    {"smiles": "O=C(/C=C/c1ccc(OC(F)(F)F)cc1)N1CC[C@@H]2CN(C(=O)NCc3nnc[nH]3)C[C@@H]2CC1", "note": "[Example 9.04]", "values": [
      {"measurement": "IC50", "value": 713, "unit": "nM"}
    ]},
    {"smiles": "CN(Cc1cnn[nH]1)C(=O)N1C[C@H]2CCN(C(=O)/C=C/c3ccc(OC(F)(F)F)c(F)c3)CC[C@H]2C1", "note": "[Example 15.61, (3aR,8aS)-N-((1H-1,2,3-triazol-5-yl)methyl)-6-((E)-3-(3-fluoro-4-(trifluoromethoxy)phenyl)-acryloyl)-N-methyloctahydro-pyrrolo[3,4-d]azepine-2(1H)-carboxamide]", "values": [
      {"measurement": "IC50", "value": 54, "unit": "nM"}
    ]},
    {"smiles": "O=C(c1cnc(OC2CCC2)c(C(F)(F)F)c1)N1C[C@@H]2CN(C(=O)c3ccc4[nH]nnc4c3)C[C@H]2C1", "note": "[Example 19.39, ((3aS,6aS)-5-(1H-benzo[d][1,2,3]triazole-5-carbonyl)hexahydropyrrolo[3,4-c]pyrrol-2(1H)-yl)(6-cyclobutoxy-5-(trifluoromethyl)pyridin-3-yl)methanone]", "values": [
      {"measurement": "IC50", "value": 7, "unit": "nM"}
    ]},
    {"smiles": "Cc1cc(OCC(=O)N2CC[C@@H]3CN(C(=O)c4ccc5[nH]nnc5c4)C[C@@H]3CC2)c(C(C)C)cc1Cl", "note": "[Example 1.35, 1-[(3aS,8aR)-2-(1H-benzotriazole-5-carbonyl)-octahydro-pyrrolo[3,4-d]azepin-6-yl]-2-(4-chloro-2-isopropyl-5-methyl-phenoxy)-ethanone]", "values": [
      {"measurement": "IC50", "value": 10, "unit": "nM"}
    ]},
    {"smiles": "COc1ccc(CCC(=O)N2CC[C@@H]3CN(C(=O)c4ccc5[nH]nnc5c4)C[C@@H]3CC2)cc1F", "note": "[Example 17.07, 1-((3aR,8aS)-2-(1H-benzo[d][1,2,3]triazole-5-carbonyl)octahydropyrrolo[3,4-d]azepin-6(7H)-yl)-3-(3-fluoro-4-methoxyphenyl)propan-1-one]", "values": [
      {"measurement": "IC50", "value": 43, "unit": "nM"}
    ]},
    {"smiles": "O=C(CCc1ccc(OC(F)(F)F)c(F)c1)N1CC[C@@H]2CN(C(=O)c3ccc4[nH]nnc4c3)C[C@@H]2CC1", "note": "[Example 17, 1-((3aR,8aS)-2-(1H-Benzo[d][1,2,3]triazole-5-carbonyl)octahydropyrrolo[3,4-d]azepin-6(7H)-yl)-3-(3-fluoro-4-(trifluoromethoxy)phenyl)propan-1-one]", "values": [
      {"measurement": "IC50", "value": 4, "unit": "nM"}
    ]},
    {"smiles": "CS(=O)(=O)c1cc(Cl)cc(COC(=O)N2C[C@@H]3CN(C(=O)[C@@H]4CCc5[nH]nnc5C4)C[C@H]3C2)c1", "note": "[Example 4.60, (3aS,6aS)-5-((R)-4,5,6,7-tetrahydro-1H-benzotriazole-5-carbonyl)-hexahydro-pyrrolo[3,4-c]pyrrole-2-carboxylic acid 3-chloro-5-methanesulfonyl-benzyl ester]", "values": [
      {"measurement": "IC50", "value": 5, "unit": "nM"}
    ]},
    {"smiles": "CC(C)Oc1cc(C(=O)N2C[C@@H]3CN(C(=O)[C@@H]4CCc5[nH]nnc5C4)C[C@H]3C2)cc2ccccc12", "note": "[Example 19.24, [(3aS,6aS)-5-[(5R)-4,5,6,7-tetrahydro-1H-benzotriazole-5-carbonyl]-1,3,3a,4,6,6a-hexahydropyrrolo[3,4-c]pyrrol-2-yl]-(4-propan-2-yloxynaphthalen-2-yl)methanone]", "values": [
      {"measurement": "IC50", "value": 7, "unit": "nM"}
    ]},
    {"smiles": "O=C(COc1cccc(OC(F)(F)F)c1)N1C[C@@H]2CN(C(=O)c3ccc4[nH]nnc4c3)C[C@@H]2C1", "note": "[Example 15.71]", "values": [
      {"measurement": "IC50", "value": 1360, "unit": "nM"}
    ]},
    {"smiles": "O=C(CCc1ccc(OC(F)(F)F)cc1)N1C[C@@H]2CN(C(=O)c3ccc4[nH]nnc4c3)C[C@H]2C1", "note": "[Example 15.44]", "values": [
      {"measurement": "IC50", "value": 6, "unit": "nM"}
    ]},
    {"smiles": "O=C(OCc1cc(Cl)cc(Cl)c1)N1C[C@H]2C[C@@H](Oc3ccc4[nH]c(=O)oc4c3)C[C@H]2C1", "note": "[Example 3.01, (3aR,5r,6aS)-3,5-Dichlorobenzyl 5-(2-oxo-2,3-dihydrobenzo[d]oxazol-6-yloxy)hexahydrocyclopenta[c]pyrrole-2(1H)-carboxylate]", "values": [
      {"measurement": "IC50", "value": 1090, "unit": "nM"}
    ]},
    {"smiles": "CS(=O)(=O)c1cc(Cl)cc(COC(=O)N2C[C@@H]3CN(C(=O)c4ccc5[nH]nnc5c4)CC[C@H]3C2)c1", "note": "[Example 4.09, (3aS,7aR)-5-(1H-benzotriazole-5-carbonyl)-octahydro-pyrrolo[3,4-c]pyridine-2-carboxylic acid 3-chloro-5-methanesulfonyl-benzyl ester]", "values": [
      {"measurement": "IC50", "value": 49, "unit": "nM"}
    ]},
    {"smiles": "O=C(/C=C/c1ccc(OC(F)(F)F)cc1)N1CC[C@H]2CN(C(=O)c3ccc4[nH]nnc4c3)C[C@H]2C1", "note": "[Example 15.37]", "values": [
      {"measurement": "IC50", "value": 93, "unit": "nM"}
    ]},
    {"smiles": "O=C(/C=C/c1cc(Cl)cc(Cl)c1)N1C[C@@H]2CN(C(=O)c3ccc4[nH]nnc4c3)C[C@H]2C1", "note": "[Example 15.42]", "values": [
      {"measurement": "IC50", "value": 6, "unit": "nM"}
    ]},
    {"smiles": "O=C(OCc1ccc(OC(F)(F)C(F)F)cc1)N1C[C@@H]2CN(C(=O)c3ccc4[nH]nnc4c3)C[C@H]2C1", "note": "[Example 4.38, (3aS,6aS)-5-(1H-benzotriazole-5-carbonyl)-hexahydro-pyrrolo[3,4-c]pyrrole-2-carboxylic acid 4-(1,1,2,2-tetrafluoro-ethoxy)-benzyl ester]", "values": [
      {"measurement": "IC50", "value": 24, "unit": "nM"}
    ]},
    {"smiles": "O=C(CCc1ccc(OC(F)(F)F)cc1)N1C[C@@H]2CN(C(=O)c3ccc4[nH]nnc4n3)C[C@H]2C1", "note": "[Example 1.50, 1-[(3aR,6aR)-5-(1H-triazolo[4,5-b]pyridine-5-carbonyl)-1,3,3a,4,6,6a-hexahydropyrrolo[3,4-c]pyrrol-2-yl]-3-[4-(trifluoromethoxy)phenyl]propan-1-one]", "values": [
      {"measurement": "IC50", "value": 17, "unit": "nM"}
    ]},
    {"smiles": "CC(C)c1cc(Cl)ccc1OCC(=O)N1C[C@@H]2CN(C(=O)c3ccc4[nH]nnc4c3)C[C@H]2C1", "note": "[Example 19.10, 1-[(3aS,6aS)-5-(1H-benzotriazole-5-carbonyl)-hexahydro-pyrrolo[3,4-c]pyrrol-2-yl]-2-(4-chloro-2-isopropyl-phenoxy)-ethanone]", "values": [
      {"measurement": "IC50", "value": 6, "unit": "nM"}
    ]},
    {"smiles": "O=C(/C=C/c1ccc(OC(F)(F)F)cc1)N1CC[C@@H]2CN(C(=O)c3ccc4nonc4c3)C[C@@H]2CC1", "note": "[Example 1.17, (E)-1-[(3aS,8aR)-2-(benzo[c][1,2,5]oxadiazole-5-carbonyl)-octahydro-pyrrolo[3,4-d]azepin-6-yl]-3-(4-trifluoromethoxy-phenyl)-prop-2-en-1-one]", "values": [
      {"measurement": "IC50", "value": 651, "unit": "nM"}
    ]},
    {"smiles": "O=C(CCc1cc(Cl)cc(C(F)(F)F)c1)N1CC[C@@H]2CN(C(=O)c3ccc4[nH]nnc4c3)C[C@@H]2CC1", "note": "[Example 17.17, 1-((3aR,8aS)-2-(1H-benzo[d][1,2,3]triazole-5-carbonyl)octahydropyrrolo[3,4-d]azepin-6(7H)-yl)-3-(3-chloro-5-(trifluoromethyl)phenyl)propan-1-one]", "values": [
      {"measurement": "IC50", "value": 4, "unit": "nM"}
    ]},
    {"smiles": "O=C(/C=C/c1ccc(OC(F)(F)F)cc1)N1C[C@@H]2CN(C(=O)C3CCc4[nH]nnc4C3)C[C@@H]2C1", "note": "(stereo partly shown) [Example 15.43]", "values": [
      {"measurement": "IC50", "value": 130, "unit": "nM"}
    ]}
  ]
}
